These are literature values, as cited in patent US4436732A, “Medicated compound for treating diseases infected by virus of the herpes group” (priority 1981, dated 1984).

For this series the following is noted: known preparations, background; cited from earlier work.

Turning to `O=c1[nH]cc(F)c(=O)[nH]1` [5-fluorouracyl], the toxicity result is listed as “rather toxic”.
